Structures can show the parent of a compound that is named as a salt.
Legend:
human JAK1 = biological target: T1, human JAK1 (Homo sapiens, UniProt P23458); assay: In Vitro JAK Kinase Assay (HTRF, phosphorylation of a biotinylated peptide), JAK1; type: biochemical; conditions: catalytic domain a.a. 837-1142, assay of Example A
T1 construct: human JAK1 (a.a. 837-1142); His tag (N); made in house; host or cells: insect cells (baculovirus)
Outline: (§1)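 HTRF detection (SA-APC plus Eu-labeled anti-phosphotyrosine Py20, 40 min after EDTA stop) quantified biotinylated-peptide phosphorylation. Kinase reactions with human JAK1 or JAK2 catalytic domains lasted 1 h at room temperature.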

human JAK2 = biological target: T2, human JAK2 (Homo sapiens, UniProt O60674); assay: In Vitro JAK Kinase Assay (HTRF, phosphorylation of a biotinylated peptide), JAK2; type: biochemical; conditions: assay of Example A
T2 construct: JAK2 (a.a. 828-1132); His tag (N); made in house; host or cells: insect cells (baculovirus)
Outline: as §1

T2 sequence (O60674 828-1132): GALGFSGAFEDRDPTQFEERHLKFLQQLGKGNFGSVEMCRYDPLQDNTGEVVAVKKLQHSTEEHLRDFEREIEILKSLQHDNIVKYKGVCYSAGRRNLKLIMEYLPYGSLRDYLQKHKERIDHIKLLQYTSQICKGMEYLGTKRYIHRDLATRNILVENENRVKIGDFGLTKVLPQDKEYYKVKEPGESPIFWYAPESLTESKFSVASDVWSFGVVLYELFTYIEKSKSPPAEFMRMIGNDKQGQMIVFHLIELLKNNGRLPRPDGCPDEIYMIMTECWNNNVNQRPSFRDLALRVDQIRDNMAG
T1 sequence (P23458 849-1154): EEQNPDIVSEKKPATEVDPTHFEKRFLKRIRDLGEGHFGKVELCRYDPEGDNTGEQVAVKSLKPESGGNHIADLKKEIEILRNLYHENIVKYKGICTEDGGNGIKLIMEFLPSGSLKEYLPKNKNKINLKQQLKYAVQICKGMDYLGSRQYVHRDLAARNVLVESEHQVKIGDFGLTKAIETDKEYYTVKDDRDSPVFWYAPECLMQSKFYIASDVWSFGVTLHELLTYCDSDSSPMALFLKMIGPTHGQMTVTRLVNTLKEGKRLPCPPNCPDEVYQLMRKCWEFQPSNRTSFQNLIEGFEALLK

Row | SMILES | IC50 (human JAK1; Table 4) [nM] | JAK2/JAK1 IC50 ratio (human JAK2; Table 4) | IC50 (human JAK1; Table 5) [nM] | JAK2/JAK1 IC50 ratio (human JAK2; Table 5)
1 | CC(C)(CO)c1cc(O[C@H]2CC[C@@H](N3CC(CC#N)(n4cc(-c5ncnc6[nH]ccc56)cn4)C3)CC2)nc(C(F)(F)F)n1 [Example 62, {1-(cis-4-{[6-(2-hydroxy-1,1-dimethylethyl)-2-(trifluoromethyl)pyrimidin-4-yl]oxy}cyclohexyl)-3-[4-(7H-pyrrolo[2,3-d]pyrimidin-4-yl)-1H-pyrazol-1-yl]azetidin-3-yl}acetonitrile tris(trifluoroacetate) (salt)] | < 10 | ≧10 | – | –
2 | CCNC(=O)c1cc(O[C@H]2CC[C@@H](N3CC(CC#N)(n4cc(-c5ncnc6[nH]ccc56)cn4)C3)CC2)nc(C(F)(F)F)n1 [Example 49, 6-[(cis-4-{3-(cyanomethyl)-3-[4-(7H-pyrrolo[2,3-d]pyrimidin-4-yl)-1H-pyrazol-1-yl]azetidin-1-yl}cyclohexyl)oxy]-N-ethyl-2-(trifluoromethyl)pyrimidine-4-carboxamide bis(trifluoroacetate)] | < 10 | ≧10 | – | –
3 | N#CCC1(n2cc(-c3ncnc4[nH]ccc34)cn2)CN([C@H]2CC[C@@H](Oc3cc(C(=O)NC4CC4)cc(C(F)(F)F)n3)CC2)C1 [Example 86, 2-[(cis-4-{3-(cyanomethyl)-3-[4-(7H-pyrrolo[2,3-d]pyrimidin-4-yl)-1H-pyrazol-1-yl]azetidin-1-yl}cyclohexyl)oxy]-N-cyclopropyl-6-(trifluoromethyl)isonicotinamide bis(trifluoroacetate)] | – | – | < 10 | ≧10
4 | N#CCC1(n2cc(-c3ncnc4[nH]ccc34)cn2)CN([C@H]2CC[C@@H](Oc3cc(C(=O)N4CC(C#N)C4)cc(C(F)(F)F)n3)CC2)C1 [Example 91, 1-[2-[(cis-4-{3-(cyanomethyl)-3-[4-(7H-pyrrolo[2,3-d]pyrimidin-4-yl)-1H-pyrazol-1-yl]azetidin-1-yl}cyclohexyl)oxy]-6-(trifluoromethyl)isonicotinoyl]azetidine-3-carbonitrile bis(trifluoroacetate)] | – | – | < 10 | ≧10
5 | N#CCC1(n2cc(-c3ncnc4[nH]ccc34)cn2)CN([C@H]2CC[C@@H](Oc3cc(CNC[C@@H]4CCCO4)nc(C(F)(F)F)n3)CC2)C1 [Example 27, [3-[4-(7H-pyrrolo[2,3-d]pyrimidin-4-yl)-1H-pyrazol-1-yl]-1-(cis-4-{[6-({[(2S)-tetrahydrofuran-2-ylmethyl]amino}methyl)-2-(trifluoromethyl)pyrimidin-4-yl]oxy}cyclohexyl)azetidin-3-yl]acetonitrile tris(trifluoroacetate)] | < 10 | ≧10 | – | –
6 | CCNCc1cc(O[C@H]2CC[C@@H](N3CC(CC#N)(n4cc(-c5ncnc6[nH]ccc56)cn4)C3)CC2)nc(C(F)(F)F)c1 [Example 65, {1-(cis-4-{[4-[(ethylamino)methyl]-6-(trifluoromethyl)pyridin-2-yl]oxy}cyclohexyl)-3-[4-(7H-pyrrolo[2,3-d]pyrimidin-4-yl)-1H-pyrazol-1-yl]azetidin-3-yl}acetonitrile tris(trifluoroacetate)] | – | – | < 10 | ≧10
7 | CN(CCO)C(=O)c1cc(O[C@H]2CC[C@@H](N3CC(CC#N)(n4cc(-c5ncnc6[nH]ccc56)cn4)C3)CC2)nc(C(F)(F)F)c1 [Example 82, 2-[(cis-4-{3-(cyanomethyl)-3-[4-(7H-pyrrolo[2,3-d]pyrimidin-4-yl)-1H-pyrazol-1-yl]azetidin-1-yl}cyclohexyl)oxy]-N-(2-hydroxyethyl)-N-methyl-6-(trifluoromethyl)isonicotinamide bis(trifluoroacetate)] | – | – | < 10 | ≧10
8 | N#CCC1(n2cc(-c3ncnc4[nH]ccc34)cn2)CN([C@H]2CC[C@@H](Oc3cc(CNCCCO)cc(C(F)(F)F)n3)CC2)C1 [Example 70, {1-(cis-4-{[4-{[(3-hydroxypropyl)amino]methyl}-6-(trifluoromethyl)pyridin-2-yl]oxy}cyclohexyl)-3-[4-(7H-pyrrolo[2,3-d]pyrimidin-4-yl)-1H-pyrazol-1-yl]azetidin-3-yl}acetonitrile tris(trifluoroacetate)] | – | – | < 10 | ≧10
9 | N#CCC1(n2cc(-c3ncnc4[nH]ccc34)cn2)CN([C@H]2CC[C@@H](Oc3cc(C4(CO)CC4)nc(C(F)(F)F)n3)CC2)C1 [Example 63, {1-(cis-4-{[6-[1-(hydroxymethyl)cyclopropyl]-2-(trifluoromethyl)pyrimidin-4-yl]oxy}cyclohexyl)-3-[4-(7H-pyrrolo[2,3-d]pyrimidin-4-yl)-1H-pyrazol-1-yl]azetidin-3-yl}acetonitrile bis(trifluoroacetate) (salt)] | < 10 | ≧10 | – | –
10 | CCN(C)C(=O)c1cc(O[C@H]2CC[C@@H](N3CC(CC#N)(n4cc(-c5ncnc6[nH]ccc56)cn4)C3)CC2)nc(C(F)(F)F)n1 [Example 48, 6-[(cis-4-{3-(cyanomethyl)-3-[4-(7H-pyrrolo[2,3-d]pyrimidin-4-yl)-1H-pyrazol-1-yl]azetidin-1-yl}cyclohexyl)oxy]-N-ethyl-N-methyl-2-(trifluoromethyl)pyrimidine-4-carboxamide bis(trifluoroacetate)] | < 10 | ≧10 | – | –
11 | N#CCC1(n2cc(-c3ncnc4[nH]ccc34)cn2)CN([C@H]2CC[C@@H](Oc3cc(CN4CC(F)C4)nc(C(F)(F)F)n3)CC2)C1 [Example 37, {1-(cis-4-{[6-[(3-fluoroazetidin-1-yl)methyl]-2-(trifluoromethyl)pyrimidin-4-yl]oxy}cyclohexyl)-3-[4-(7H-pyrrolo[2,3-d]pyrimidin-4-yl)-1H-pyrazol-1-yl]azetidin-3-yl}acetonitrile tris(trifluoroacetate)] | < 10 | ≧10 | – | –
12 | CC(C)(O)c1cc(O[C@H]2CC[C@@H](N3CC(CC#N)(n4cc(-c5ncnc6[nH]ccc56)cn4)C3)CC2)nc(C(F)(F)F)c1 [Example 69, {1-(cis-4-{[4-(1-hydroxy-1-methylethyl)-6-(trifluoromethyl)pyridin-2-yl]oxy}cyclohexyl)-3-[4-(7H-pyrrolo[2,3-d]pyrimidin-4-yl)-1H-pyrazol-1-yl]azetidin-3-yl}acetonitrile bis(trifluoroacetate)] | – | – | < 10 | ≧10
13 | CC(C)NCc1cc(O[C@H]2CC[C@@H](N3CC(CC#N)(n4cc(-c5ncnc6[nH]ccc56)cn4)C3)CC2)nc(C(F)(F)F)n1.O=C(O)C(F)(F)F.O=C(O)C(F)(F)F.O=C(O)C(F)(F)F [Example 6, {1-(cis-4-{[6-[(isopropylamino)methyl]-2-(trifluoromethyl)pyrimidin-4-yl]oxy}cyclohexyl)-3-[4-(7H-pyrrolo[2,3-d]pyrimidin-4-yl)-1H-pyrazol-1-yl]azetidin-3-yl}acetonitrile tris(trifluoroacetate)] | < 10 | ≧10 | – | –
14 | CC(CO)c1cc(OC2CCC(N3CC(CC#N)(n4cc(-c5ncnc6[nH]ccc56)cn4)C3)CC2)nc(C(F)(F)F)n1 (single isomer, unassigned) [Example 59, {1-(cis-4-{[6-(2-hydroxy-1-methylethyl)-2-(trifluoromethyl)pyrimidin-4-yl]oxy}cyclohexyl)-3-[4-(7H-pyrrolo[2,3-d]pyrimidin-4-yl)-1H-pyrazol-1-yl]azetidin-3-yl}acetonitrile bis(trifluoroacetate) (salt)] | < 10 | ≧10 | – | –
15 | N#CCC1(n2cc(-c3ncnc4[nH]ccc34)cn2)CN([C@H]2CC[C@@H](Oc3cc(C(=O)N4CCCC4)nc(C(F)(F)F)n3)CC2)C1 [Example 51, {1-(cis-4-{[6-(pyrrolidin-1-ylcarbonyl)-2-(trifluoromethyl)pyrimidin-4-yl]oxy}cyclohexyl)-3-[4-(7H-pyrrolo[2,3-d]pyrimidin-4-yl)-1H-pyrazol-1-yl]azetidin-3-yl}acetonitrile bis(trifluoroacetate)] | < 10 | ≧10 | – | –
16 | N#CCC1(n2cc(-c3ncnc4[nH]ccc34)cn2)CN([C@H]2CC[C@@H](Oc3cc(CN4CC[C@H](O)C4)nc(C(F)(F)F)n3)CC2)C1 [Example 26, {1-(cis-4-{[6-{[(3S)-3-hydroxypyrrolidin-1-yl]methyl}-2-(trifluoromethyl)pyrimidin-4-yl]oxy}cyclohexyl)-3-[4-(7H-pyrrolo[2,3-d]pyrimidin-4-yl)-1H-pyrazol-1-yl]azetidin-3-yl}acetonitrile tris(trifluoroacetate) (salt)] | < 10 | ≧10 | – | –
